Consider 16 compounds from patent US20250066344A1 (BRISTOL-MYERS SQUIBB COMPANY, priority 2021, published 2025).

Usually EC50 stands for the concentration at which the effect is half-maximal. High values mean weaker potency, low ones greater potency.

This assay has as its target T1, human RXFP1 (Homo sapiens, UniProt Q9HBX9).
T1 construct: expressed in transfected cells
T1 sequence (Q9HBX9 1-757): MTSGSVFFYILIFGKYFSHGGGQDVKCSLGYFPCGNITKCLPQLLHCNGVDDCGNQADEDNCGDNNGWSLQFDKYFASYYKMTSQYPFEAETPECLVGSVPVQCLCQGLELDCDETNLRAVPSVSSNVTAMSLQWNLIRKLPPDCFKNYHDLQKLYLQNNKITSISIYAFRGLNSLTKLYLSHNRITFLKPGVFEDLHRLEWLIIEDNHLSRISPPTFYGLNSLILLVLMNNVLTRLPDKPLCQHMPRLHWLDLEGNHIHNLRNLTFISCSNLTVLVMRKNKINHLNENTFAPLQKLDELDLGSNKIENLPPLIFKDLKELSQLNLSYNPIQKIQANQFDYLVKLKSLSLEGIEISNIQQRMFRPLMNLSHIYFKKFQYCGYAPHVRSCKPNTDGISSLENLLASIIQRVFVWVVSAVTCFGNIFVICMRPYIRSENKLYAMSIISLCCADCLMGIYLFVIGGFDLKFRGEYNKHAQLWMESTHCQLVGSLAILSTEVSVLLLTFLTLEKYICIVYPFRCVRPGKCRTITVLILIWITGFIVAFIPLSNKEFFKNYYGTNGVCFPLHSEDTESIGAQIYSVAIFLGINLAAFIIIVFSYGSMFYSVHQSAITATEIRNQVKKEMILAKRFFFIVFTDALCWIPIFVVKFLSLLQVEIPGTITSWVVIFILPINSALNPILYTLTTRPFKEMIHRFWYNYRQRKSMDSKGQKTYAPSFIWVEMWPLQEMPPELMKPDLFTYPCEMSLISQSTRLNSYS
Put plainly: RXFP1 cyclic adenosine monophosphate (cAMP) assay, hRXFP1 HEK293. Format: cell-based. As to conditions: HEK293 cells stably expressing human RXFP1; 30 min at room temperature; HTRF cAMP. On the procedure:
RXFP1 Cyclic Adenosine Monophosphate (cAMP) Assays. Human embryonic kidney cells 293 (HEK293) cells and HEK293 cells stably expressing human RXFP1, were cultured in MEM medium supplemented with 10% qualified FBS, and 300 μg/ml hygromycin (Life Technologies). Cells were dissociated and suspended in assay buffer. The assay buffer was HBSS buffer (with calcium and magnesium) containing 20 mM HEPES, 0.05% BSA, and 0.5 mM IBMX. Cells (3000 cells per well, except 1500 cell per well for HEK293 cells stably expressing human RXFP1) were added to 384-well Proxiplates (Perkin-Elmer). Cells were immediately treated with test compounds in DMSO (2% final) at final concentrations in the range of 0.010 nM to 50 μM. Cells were incubated for 30 min at room temperature. The level of intracellular cAMP was determined using the HTRF HiRange cAMP assay reagent kit (Cisbio) according to manufacturer's instructions. Solutions of cryptate conjugated anti-cAMP and d2 fluorophore-labelled cAMP were made in a supplied lysis buffer separately. Upon completion of the reaction, the cells were lysed with equal volume of the d2-cAMP solution and anti-cAMP solution. After a 1 h room temperature incubation, time-resolved fluorescence intensity was measured using the Envision (Perkin-Elmer) at 400 nm excitation and dual emission at 590 nm and 665 nm. A calibration curve was constructed with an external cAMP standard at concentrations ranging from 2.7 μM to 0.1 μM by plotting the fluorescent intensity ratio from 665 nm emission to the intensity from the 590 nm emission against cAMP concentrations. The potency and activity of a compound to […] cAMP production was then determined by fitting to a 4-parametric logistic equation from a plot of cAMP level versus compound concentrations.
The examples disclosed below were tested in the human RXFP1 (hRXFP) HEK293 cAMP assay described above and found to have agonist activity. Tables 1-3, lists EC50 values in the hRXFP1 HEK293 cAMP assay measured for the examples.
Table A lists EC50 values in the hRXFP1 HEK293 cAMP assay measured for the examples.
Background: Time-resolved FRET reads energy transfer from a long-lived donor to a nearby acceptor.
Turning to `COc1ccc(-c2cc([C@H](OC(=O)NC3CCC3)C(F)(F)F)ccc2F)cc1C(=O)Nc1cc2sc(C)nc2cc1C(=O)Nc1ccc(F)c(C(F)(F)F)c1` [Example 16, (S)-2,2,2-trifluoro-1-(6-fluoro-3′-((5-((4-fluoro-3-(trifluorometh-yl)phenyl)car-bamoyl)-2-methylbenzo [d]thiazol-6-yl)carbamoyl)-4′-methoxy-[1,1′-biphen-yl]-3-ylethylcyclobutylcar-bamate], the midpoint of the response, the EC50, lay at 46 nM. `COc1ccc(-c2cc(C(=O)NS(C)(=O)=O)ccc2F)cc1C(=O)Nc1cc2c(cc1C(=O)Nc1ccc(F)c(C(F)(F)F)c1)OC(F)(F)O2` [Example 47, N3-(2,2-difluoro-6-((4-fluoro-3-(trifluoromethyl)phenyl)carbamoyl)benzo[d][1,3]dioxol-5-yl)-6′-fluoro-4-methoxy-N3′-(methylsulfonyl)-[1,1′-biphenyl]-3,3′-dicarboxamide] registered an EC50 of 85 nM. In turn, `COc1ccc(C2=NOC3CC(CO)CC23)cc1C(=O)Nc1cc2c(cc1C(=O)Nc1ccc(F)c(C(F)(F)F)c1)OC(F)(F)O2` (stereo not shown) [Example 99, 2,2-difluoro-N-(4-fluoro-3-(trifluoromethyl)phenyl)-6-(5-(5-(hydroxymethyl)-3a,5,6,6a-tetrahydro-4H-cyclopenta[d]isoxazol-3-yl)-2-methoxybenzamido) benzo[d][1,3]dioxole-5-carboxamide] yielded a concentration for a half-maximal effect (EC50) of 3.9 nM.

On to `COCCOC1(C2CC(c3ccc(OC)c(C(=O)Nc4cc5nc(C)sc5cc4C(=O)Nc4ccc(F)c(C(F)(F)F)c4)c3)=NO2)CC1` (stereo not shown) [Example 12, N-(4-fluoro-3-(trifluorometh-yl)phenyl)-5-(2-methoxy-5-(5-(1-(2-meth-oxyethoxy)-cyclopropyl)-4,5-dihydro-isoxazol-3-yl)-benzamido)-2-methylbenzo [d]thiazole-6-carboxamide], for which the 50% effective concentration (EC50) was 290 nM. The figure for `COc1ccc(C2CCN(C(=O)C(C)(C)O)C2)cc1C(=O)Nc1cc2c(cc1C(=O)Nc1ccc(F)c(C(F)(F)F)c1)OC(F)(F)O2` (single isomer, unassigned) [Example 55, 2,2-difluoro-N-(4-fluoro-3-(trifluoromethyl)phenyl)-6-(5-(1-(2-hydroxy-2-methylpropanoyl)pyrrolidin-3-yl)-2-methoxybenzamido) benzo[d][1,3]dioxole-5-carboxamide] is 322 nM; for `COc1ccc(C2=NOC3CNCC23)cc1C(=O)Nc1cc2c(cc1C(=O)Nc1ccc(F)c(C(F)(F)F)c1)OC(F)(F)O2` (single isomer, unassigned) [Example 43, 2,2-difluoro-N-(4-fluoro-3-(trifluoromethyl)phenyl)-6-(2-methoxy-5-(3a,5,6,6a-tetrahydro-4H-pyrrolo[3,4-d]isoxazol-3-yl)benzamido)benzo[d][1,3]dioxole-5-carboxamide] it is 13 nM.

The compound `COc1ccc(-c2nc3c(s2)CN(CC(N)=O)CC3)cc1C(=O)Nc1cc2c(cc1C(=O)Nc1ccc(F)c(C(F)(F)F)c1)OC(F)(F)O2` [Example 53, 6-(5-(5-(2-amino-2-oxoethyl)-4,5,6,7-tetrahydrothiazolo[5,4-c]pyridin-2-yl)-2-methoxybenzamido)-2,2-difluoro-N-(4-fluoro-3-(trifluoromethyl)phenyl)benzo[d][1,3]dioxole-5-carboxamide] gave a concentration giving a half-maximal response (EC50) of 33 nM. Take `COc1ccc(C(=O)N2CC[C@@H](O)C2)cc1C(=O)Nc1cc2c(cc1C(=O)Nc1ccc(F)c(C(F)(F)F)c1)OC(F)(F)O2` [Example 40, (R)-2,2-difluoro-N-(4-fluoro-3-(trifluoromethyl)phenyl)-6-(5-(3-hydroxypyrrolidine-1-carbonyl)-2-methoxybenzamido) benzo[d][1,3]dioxole-5-carboxamide]: the EC50 was found to be 196 nM. Against the preceding compound, the EC50 is about 5.9-fold higher. `COc1ccc(C2=NOC3CC(O)CC23)cc1C(=O)Nc1cc2nc(C)sc2cc1C(=O)Nc1ccc(F)c(C(F)(F)F)c1` (single isomer, unassigned) [Example 24, N-(4-fluoro-3-(trifluoro-methyl)phen-yl)-5-(5-(5-hydroxy-3a,5,6,6a-tetrahydro-4H-cyclopenta [d]isoxazol-3-yl)-2-methoxy-benzamido)-2-methylbenzo [d]thiazole-6-carboxamide]: a half-maximal response (EC50) required 750 nM. This EC50 is about 3.8-fold higher than that of the compound before.

`CC1(C)Cc2cc(C3=NOC4CC(CO)CC34)cc(C(=O)Nc3cc4c(cc3C(=O)Nc3ccc(F)c(C(F)(F)F)c3)OC(F)(F)O4)c2O1` (stereo not shown) [Example 100, 2,2-difluoro-N-(4-fluoro-3-(trifluoromethyl)phenyl)-6-(5-(5-(hydroxymethyl)-3a,5,6,6a-tetrahydro-4H-cyclopentafdlisoxazol-3-yl)-2,2-dimethyl-2,3-dihydrobenzofuran-7-carboxamido)benzo[d] [1,3]dioxole-5-carboxamide]: the midpoint of the response, the EC50, lay at 8.4 nM. The compound `COc1ccc(C(=O)N2CC(C)(O)C2)cc1C(=O)Nc1cc2c(cc1C(=O)Nc1ccc(F)c(C(F)(F)F)c1)OC(F)(F)O2` [Example 39, 2,2-difluoro-N-(4-fluoro-3-(trifluoromethyl)phenyl)-6-(5-(3-hydroxy-3-methylazetidine-1-carbonyl)-2-methoxybenzamido) benzo[d][1,3]dioxole-5-carboxamide] registered an EC50 of 90 nM. Against the preceding compound, the EC50 is about 11-fold higher. In turn, `COc1ccc(C2=NOC3(CCN(CC(N)=O)CC3)C2)cc1C(=O)Nc1cc2c(cc1C(=O)Nc1ccc(F)c(C(F)(F)F)c1)OC(F)(F)O2` [Example 69, 6-(5-(8-(2-amino-2-oxoethyl)-1-oxa-2,8-diazaspiro[4.5]dec-2-en-3-yl)-2-methoxybenzamido)-2,2-difluoro-N-(4-fluoro-3-(trifluoromethyl)phenyl) benzo[d][1,3]dioxole-5-carboxamide] returned a concentration giving a half-maximal response (EC50) of 42 nM.

In the case of `COc1ccc(C2=NOC(C)(CO)C2)cc1C(=O)Nc1cc2c(cc1C(=O)Nc1ccc(F)c(C(F)(F)F)c1)OC(F)(F)O2` (single isomer, unassigned) [Example 71, 2,2-difluoro-N-(4-fluoro-3-(trifluoromethyl)phenyl)-6-(5-(5-(hydroxymethyl)-5-methyl-4,5-dihydroisoxazol-3-yl)-2-methoxybenzamido) benzo[d][1,3]dioxole-5-carboxamide], the EC50 came to 43 nM.

On to `COc1ccc(-c2cc(C(NC(=O)C3CCOCC3)C(=O)O)ccc2F)cc1C(=O)Nc1cc2sc(C)nc2cc1C(=O)Nc1ccc(F)c(C(F)(F)F)c1` (single isomer, unassigned) [Example 30, 2-(6-fluoro-3′-((5-((4-fluoro-3-(trifluoromethyl)phenyl)carbamoyl)-2-methylbenzo[d]thiazol-6-yl)carbamoyl)-4′-methoxy-[1,1′-biphenyl]-3-yl)-2-(tetrahydro-2H-pyran-4-carboxamido)acetic acid], for which the EC50 was found to be 15 nM.

In the case of `COc1ccc(C2=NOC3(C2)CN(C(=O)CO)C3)cc1C(=O)Nc1cc2c(cc1C(=O)Nc1ccc(F)c(C(F)(F)F)c1)OC(F)(F)O2` [Example 75, 2,2-difluoro-N-(4-fluoro-3-(trifluoromethyl)phenyl)-6-(5-(2-(2-hydroxyacetyl)-5-oxa-2,6-diazaspiro[3.4]oct-6-en-7-yl)-2-methoxybenzamido) benzo[d][1,3]dioxole-5-carboxamide], the midpoint of the response, the EC50, lay at 231 nM.

In the case of `COc1ccc(C2=NOC3(CCN(C(=O)CO)CC3)C2)cc1C(=O)Nc1cc2c(cc1C(=O)Nc1ccc(F)c(C(F)(F)F)c1)OC(F)(F)O2` [Example 68, 2,2-difluoro-N-(4-fluoro-3-(trifluoromethyl)phenyl)-6-(5-(8-(2-hydroxyacetyl)-1-oxa-2,8-diazaspiro[4.5]dec-2-en-3-yl)-2-methoxybenzamido) benzo[d][1,3]dioxole-5-carboxamide], a half-maximal effect (EC50) was put at 173 nM. The EC50 values of the last two compounds are within 1.5-fold of each other.
